# Measurements from patent US7056954B2, “Means for the modulation of processes mediated by retinoid receptors and compounds useful therefor” (The Salk Institute for Biological Studies, priority 1991, dated 2006).
# pEC50: −log10 of the molar value. Like-named read-outs stand apart in the source and are kept apart here.
# Columns and labels:
# RAR-α [1] = target: T1, RAR-α (Homo sapiens, UniProt P10276); assay: Cotransfection assay in CV-1 cells, RAR-alpha; assay type: cell-based; set-up: expressed in transfected cells; host or cells: CV-1 (monkey kidney); settings: for pEC50: Table 4
# T1 sequence (P10276 1-462): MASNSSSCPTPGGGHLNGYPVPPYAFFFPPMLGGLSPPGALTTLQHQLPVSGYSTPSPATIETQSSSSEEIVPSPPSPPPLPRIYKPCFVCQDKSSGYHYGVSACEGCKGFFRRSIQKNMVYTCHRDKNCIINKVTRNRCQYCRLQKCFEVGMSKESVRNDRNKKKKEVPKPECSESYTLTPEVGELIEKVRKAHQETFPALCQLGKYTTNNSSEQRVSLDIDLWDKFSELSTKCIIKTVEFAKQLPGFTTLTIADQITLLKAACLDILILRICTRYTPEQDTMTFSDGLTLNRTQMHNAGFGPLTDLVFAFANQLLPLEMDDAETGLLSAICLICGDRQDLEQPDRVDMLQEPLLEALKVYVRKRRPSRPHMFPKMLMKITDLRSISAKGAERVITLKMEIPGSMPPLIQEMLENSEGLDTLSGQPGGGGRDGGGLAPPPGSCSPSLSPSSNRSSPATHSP
# RXR-γ = target: T2, RXR-γ (Mus musculus, UniProt P28705); assay: Cotransfection assay in CV-1 cells, RXR-gamma; assay type: cell-based; settings: Table 4; read-out: Potency
# T2 construct: expressed in transfected cells; host or cells: CV-1 (monkey kidney)
# T2 sequence (P28705 1-463): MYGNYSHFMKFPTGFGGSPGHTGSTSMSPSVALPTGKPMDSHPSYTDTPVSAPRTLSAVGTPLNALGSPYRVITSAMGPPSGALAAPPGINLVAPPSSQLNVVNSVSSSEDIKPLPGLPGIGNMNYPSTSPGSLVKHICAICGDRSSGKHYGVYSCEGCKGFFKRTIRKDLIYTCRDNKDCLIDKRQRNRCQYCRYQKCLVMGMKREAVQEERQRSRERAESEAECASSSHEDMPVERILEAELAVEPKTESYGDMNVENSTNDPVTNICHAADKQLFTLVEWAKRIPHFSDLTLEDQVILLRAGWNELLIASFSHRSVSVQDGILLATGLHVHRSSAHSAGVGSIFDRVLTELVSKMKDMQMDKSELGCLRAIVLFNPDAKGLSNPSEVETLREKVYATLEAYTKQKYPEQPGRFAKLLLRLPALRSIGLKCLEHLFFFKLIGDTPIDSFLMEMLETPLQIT
# RXR-β = target: T3, RXR-β (Mus musculus, UniProt P28704); assay: Cotransfection assay in CV-1 cells, RXR-beta; assay type: cell-based; settings: Table 4; read-out: Potency
# T3 construct: expressed in transfected cells; host or cells: CV-1 (monkey kidney)
# T3 sequence (P28704 1-520): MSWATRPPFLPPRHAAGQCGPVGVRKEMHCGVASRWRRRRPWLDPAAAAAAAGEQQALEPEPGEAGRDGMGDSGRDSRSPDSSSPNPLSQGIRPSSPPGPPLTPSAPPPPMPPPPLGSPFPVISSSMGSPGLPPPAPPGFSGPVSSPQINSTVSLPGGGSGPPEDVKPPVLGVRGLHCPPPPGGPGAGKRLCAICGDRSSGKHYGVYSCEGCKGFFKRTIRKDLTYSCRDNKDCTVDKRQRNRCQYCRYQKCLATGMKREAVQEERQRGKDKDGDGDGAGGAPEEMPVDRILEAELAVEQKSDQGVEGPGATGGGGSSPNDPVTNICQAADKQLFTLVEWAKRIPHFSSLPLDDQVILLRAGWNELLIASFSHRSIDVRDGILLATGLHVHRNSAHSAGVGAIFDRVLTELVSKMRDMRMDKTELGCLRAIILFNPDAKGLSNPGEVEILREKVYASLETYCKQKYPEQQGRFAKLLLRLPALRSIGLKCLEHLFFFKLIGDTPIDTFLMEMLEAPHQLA
# RAR-β = target: T4, RAR-β (Homo sapiens, UniProt P10826); assay: Cotransfection assay in CV-1 cells, RAR-beta; assay type: cell-based
# T4 construct: expressed in transfected cells; host or cells: CV-1 (monkey kidney)
# T4 sequence (P10826 1-448 isoform P10826-2): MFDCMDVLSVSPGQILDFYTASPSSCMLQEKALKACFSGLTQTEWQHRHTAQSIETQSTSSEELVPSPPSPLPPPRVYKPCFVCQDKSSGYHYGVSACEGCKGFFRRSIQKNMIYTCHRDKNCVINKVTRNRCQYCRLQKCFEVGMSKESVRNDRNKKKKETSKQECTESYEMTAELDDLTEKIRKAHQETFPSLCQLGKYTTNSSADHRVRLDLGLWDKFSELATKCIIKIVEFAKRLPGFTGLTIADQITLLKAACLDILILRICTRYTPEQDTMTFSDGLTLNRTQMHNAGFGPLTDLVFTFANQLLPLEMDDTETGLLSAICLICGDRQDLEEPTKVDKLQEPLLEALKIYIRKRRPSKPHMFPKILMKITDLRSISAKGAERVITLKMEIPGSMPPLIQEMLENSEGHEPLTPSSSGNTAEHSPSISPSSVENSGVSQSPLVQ
# RAR-γ = target: T5, RAR-γ (Homo sapiens, UniProt P13631); assay: Cotransfection assay in CV-1 cells, RAR-gamma; assay type: cell-based
# T5 construct: expressed in transfected cells; host or cells: CV-1 (monkey kidney)
# T5 sequence (P13631 1-454): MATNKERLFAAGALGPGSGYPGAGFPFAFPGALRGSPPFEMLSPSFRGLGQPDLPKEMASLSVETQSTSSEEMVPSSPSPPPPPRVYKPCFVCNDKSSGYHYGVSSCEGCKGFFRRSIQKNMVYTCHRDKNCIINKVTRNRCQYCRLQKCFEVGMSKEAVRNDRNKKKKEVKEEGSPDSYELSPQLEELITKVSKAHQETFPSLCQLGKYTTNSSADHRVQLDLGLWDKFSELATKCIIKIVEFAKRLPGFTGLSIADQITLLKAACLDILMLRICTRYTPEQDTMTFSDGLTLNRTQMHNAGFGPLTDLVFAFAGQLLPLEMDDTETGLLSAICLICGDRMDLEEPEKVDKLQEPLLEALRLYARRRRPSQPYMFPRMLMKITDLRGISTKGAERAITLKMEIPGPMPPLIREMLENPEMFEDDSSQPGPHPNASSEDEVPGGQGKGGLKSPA
# RXR-α = target: T6, RXR-α (Homo sapiens, UniProt P19793); assay: Cotransfection assay in CV-1 cells, RXR-alpha; assay type: cell-based; settings: Table 4; for pEC50: read-out: Potency
# T6 construct: expressed in transfected cells; host or cells: CV-1 (monkey kidney)
# T6 sequence (P19793 1-462): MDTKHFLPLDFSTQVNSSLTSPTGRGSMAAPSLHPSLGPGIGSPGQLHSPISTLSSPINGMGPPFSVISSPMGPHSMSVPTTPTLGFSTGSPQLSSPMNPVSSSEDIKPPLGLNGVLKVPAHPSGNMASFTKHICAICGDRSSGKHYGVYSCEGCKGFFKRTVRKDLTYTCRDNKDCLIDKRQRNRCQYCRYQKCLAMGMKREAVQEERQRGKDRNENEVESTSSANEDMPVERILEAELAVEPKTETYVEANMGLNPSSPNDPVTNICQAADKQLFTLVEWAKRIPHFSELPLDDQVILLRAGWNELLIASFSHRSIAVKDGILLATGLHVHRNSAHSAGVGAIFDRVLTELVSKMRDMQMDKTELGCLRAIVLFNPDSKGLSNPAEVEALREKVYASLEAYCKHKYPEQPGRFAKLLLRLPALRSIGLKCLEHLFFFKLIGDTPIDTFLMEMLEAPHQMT
# F9 cells [2] = assay: F9 cell differentiation, cellular morphology; assay type: cell-based, mouse
# Excerpt: Retinoids are known to differentiate mouse teratocarcinoma cells (F9). Differentiation of F9 cells is specifically associated with irreversible changes in morphology and induction of the biochemical marker alkaline phosphatase (ALP) and tissue plasminogen activator (tPA) (Biochem. J. Vol. 274:673–678).
# [3] = tested on: murine melanoma cell line Clone M3; assay: In vitro proliferation of murine melanoma cell line Clone M3
# RAR-α [4] = target: T1, RAR-α; assay: Binding studies, RAR-alpha; set-up: made in house; host or cells: bacteria (PET-8c vector)
# [5] = tested on: human primary metastatic melanoma cell line c81–46c; assay: In vitro proliferation of human melanoma cell line c81–46c; assay type: cell-based
# F9 cells [6] = assay: F9 cell differentiation, induction of alkaline phosphatase; assay type: cell-based, mouse; settings: maximal responses similar
# F9 cells [7] = assay: F9 cell differentiation, tissue plasminogen activator activity; assay type: cell-based, mouse; settings: concentration of 1 μM
# Rhino mouse = assay: Topical application, horn-filled utriculus size in the Rhino mouse; assay type: in vivo; settings: 14 days
smiles,measurement,setting,value
CC1=C(/C=C/C(C)=C\C=C\C(C)=C\C(=O)O)C(C)(C)CCC1O (stereo not drawn) [4-hydroxy-9-cis-retinoic acid],pEC50,RAR-α [1]; Potency,6.42
same,pEC50,RXR-γ,5.77
same,pEC50,RXR-β,6.19
same,pEC50,RAR-β,6.80
same,Efficacy,RAR-β,71%
same,pEC50,RAR-γ,6.74
same,Efficacy,RAR-γ,81%
same,Efficacy,RXR-α; maximal response relative to retinoic acid at 10^−5 M,161%
same,pEC50,RXR-α,5.77
CC1=C(/C=C/C(C)=C\C=C\C(C)=C\C(=O)O)C(C)(C)CCC1=O [4-keto-9-cis-retinoic acid],pEC50,RXR-γ,5.96
same,pEC50,RXR-β,5.89
same,pEC50,RXR-α,6.28
CC1=C(/C=C/C(C)=C\C=C\C(C)=C\C(=O)O)C(C)(C)CCC1 [9-cis-retinoic acid],"differentiation of F9 cells, irreversible changes in cellular morphology",F9 cells [2],induced differentiation of F9 cells into partial endoderm-like cells
same,potency as an activator of RAR-alpha compared with all-trans-retinoic acid,RAR-α [1]; FIG. 3C,equipotent
same,% Growth inhibition,[3]; Conc added 0.01 μM,−49%
same,% Growth inhibition,[3]; Conc added 1 μM,−85%
same,binding to RAR-alpha,RAR-α [4],high affinity ligand
same,% Growth inhibition,[5]; Conc added 0.01 μM,−28%
same,% Growth inhibition,[5]; Conc added 1 μM,−45%
CC1=C(/C=C/C(=C\C=C\C(C)=C\C(=O)O)c2ccccc2)C(C)(C)CCC1 [9-phenyl-9-cis-retinoic acid],pEC50,RAR-α [1]; read-out: Potency,< 5.00
same,pEC50,RXR-γ,6.54
same,pEC50,RXR-β,7.36
same,pEC50,"RAR-β; Table 4, read-out: Potency",6.06
same,pEC50,"RAR-γ; Table 4, read-out: Potency",6.60
same,pEC50,RXR-α,6.68
CC1=C(/C=C/C(C)=C/C=C/C(C)=C/C(=O)O)C(C)(C)CCC1 [all-trans-retinoic acid],times more potent than 9-cis-retinoic acid in inducing ALP,F9 cells [6],40 times
same,"differentiation of F9 cells, irreversible changes in cellular morphology",F9 cells [2],induced differentiation of F9 cells into partial endoderm-like cells
same,increased cellular activities of tPA,F9 cells [7],0.80±0.08
same,Pilosebaceous structure size (% red′n),Rhino mouse; 0.01% topical,(−75%)
same,Pilosebaceous structure size (% red′n),Rhino mouse; 0.1% topical,(−78%)
same,Pilosebaceous structure size,"Rhino mouse; 0.1% topical, vehicle control 178 μm",44 μm
